Assay results: patent US20240254129A1, “HETEROCYCLIC COMPOUNDS AND USES THEREOF” (Kumquat Biosciences Inc., priority 2021, published 2024)
Like-named read-outs stand apart in the source and are kept apart here.

Assays:
[1] = target: GST-tagged K-Ras mutant / His-tagged hSOS1 (Homo sapiens, UniProt P01116); experiment: HTRF assay, K-Ras mutant / SOS1 interaction; format: binding; settings: read-out: IC50 against mutant Kras
Procedure, shortened: (§1)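 Compounds, in duplicate at six concentrations from 10 μM to 0.01 μM, are added to GST-K-Ras premixed with anti-GST-Eu(K), then His-hSOS1 with anti-6His-XL665. After roughly 10 min, FRET is measured and the emission ratio is used to derive IC50.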

wildtype Kras / hSOS1 = target: T1, wildtype Kras / hSOS1 (Homo sapiens, UniProt P01116); experiment: HTRF assay, wildtype Kras / SOS1 interaction; format: binding; settings: read-out: IC50 against wildtype Kras
T1 construct: made in house; host or cells: E. coli BL21 (DE3)
Procedure, shortened: as §1

[2] = compound nos. 102-196, general methodology of example 5
[3] = compound nos. 201-213, general methodology of example 5

T1 sequence (P01116 1-188 isoform P01116-2): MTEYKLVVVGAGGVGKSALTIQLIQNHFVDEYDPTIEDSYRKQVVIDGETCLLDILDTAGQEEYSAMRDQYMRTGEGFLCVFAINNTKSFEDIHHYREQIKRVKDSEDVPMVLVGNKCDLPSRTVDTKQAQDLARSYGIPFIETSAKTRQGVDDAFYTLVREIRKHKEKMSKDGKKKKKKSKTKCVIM
GST-tagged K-Ras mutant / His-tagged hSOS1, sequence (P01116 whole entry G12D, form open): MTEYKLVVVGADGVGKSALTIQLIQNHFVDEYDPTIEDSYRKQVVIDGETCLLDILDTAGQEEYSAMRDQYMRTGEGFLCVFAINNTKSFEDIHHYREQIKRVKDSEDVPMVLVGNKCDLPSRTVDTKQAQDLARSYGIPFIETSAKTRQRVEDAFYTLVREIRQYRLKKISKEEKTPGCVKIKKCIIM

## CN1CCC[C@H]1COc1nc(N2CCCOCC2)c2cc(Cl)c(-c3ccc(F)c4sc(N)nc34)c(F)c2n1 [Compound 147, 4-(6-chloro-8-fluoro-2-(((S)-1-methylpyrrolidin-2-yl)-methoxy)-4-(1,4-oxazepan-4-yl)quinazolin-7-yl)-7-fluorobenzo[d]thiazol-2-amine]
[1]; [2]
  IC50: < 500 nM
Wildtype Kras / hSOS1; [2]
  IC50: < 500 nM

## Nc1nc2c(-c3c(Cl)cc4c(N5CC6CCC(C5)O6)nc(OC[C@@]56CCCN5C[C@H](F)C6)nc4c3F)ccc(F)c2s1 [Compound 203, 4-(4-(8-oxa-3-azabicyclo[3.2.1]octan-3-yl)-6-chloro-8-fluoro-2-(((2R,7aS)-2-fluorohexahydro-1H-pyrrolizin-7a-yl)methoxy)quinazolin-7-yl)-7-fluorobenzo[d]thiazol-2-amine]
[1]; [3]
  IC50: < 1500 nM
Wildtype Kras / hSOS1; [3]
  IC50: < 1500 nM

## Cc1ccc2sc(N)nc2c1-c1c(Cl)cc2c(N3CCNCC(F)(F)C3)nc(OCC34CCCN3CCC4)nc2c1O [Compound 426, 7-(2-amino-5-methylbenzo-[d]thiazol-4-yl)-6-chloro-4-(6,6-difluoro-1,4-diazepan-1-yl)-2-((tetrahydro-1H-pyrrolizin-7a(5H)-yl)meth-oxy)quinazolin-8-ol]
[1]; compound nos. 401-703
  IC50: > 500 nM
Wildtype Kras / hSOS1; compound nos. 401-703
  IC50: < 500 nM

## CN1CCC[C@H]1COc1nc(N2CCSCC(F)(F)C2)c2cc(Cl)c(-c3cccc4sc(N)nc34)c(F)c2n1 [Compound 136, 4-(6-chloro-4-(6,6-difluoro-1,4-thiazepan-4-yl)-8-fluoro-2-(((S)-1-methylpyrrolidin-2-yl)methoxy)quinazolin-7-yl)benzo[d]thiazol-2-amine]
[1]; [2]
  IC50: < 500 nM
Wildtype Kras / hSOS1; [2]
  IC50: < 500 nM

## CCCC1CCCN(c2nc(OC[C@@H]3CCCN3C)nc3c(F)c(-c4cccc5sc(N)nc45)c(Cl)cc23)CC1 (stereo partly drawn) [Compound 646, 4-(6-chloro-8-fluoro-2-(((S)-1-methylpyrrolidin-2-yl)-methoxy)-4-(4-propylaze-pan-1-yl)quinazolin-7-yl)-benzo[d]thiazol-2-amine]
[1]; compound nos. 401-703
  IC50: > 500 nM
Wildtype Kras / hSOS1; compound nos. 401-703
  IC50: > 500 nM

## Nc1nc2c(-c3c(Cl)cc4c(N5CCCOCC5)nc(OC[C@@]56CCCN5C[C@H](F)C6)nc4c3F)ccc(F)c2s1 [Compound 154, 4-(6-chloro-8-fluoro-2-(((2R,7aS)-2-fluorotetra-hydro-1H-pyrrolizin-7a(5H)-yl)methoxy)-4-(1,4-oxazepan-4-yl)quin-azolin-7-yl)-7-fluoro-benzo[d]-thiazol-2-amine]
[1]; [2]
  IC50: < 500 nM
Wildtype Kras / hSOS1; [2]
  IC50: < 500 nM

## CN1CCC[C@H]1COc1nc(N2CCNCC(F)(F)C2)c2cc(Cl)c(-c3cccc4sc(O)nc34)c(F)c2n1 [Compound 177, 4-(6-chloro-4-(6,6-difluoro-1,4-diazepan-1-yl)-8-fluoro-2-(((S)-1-methylpyrrolidin-2-yl)methoxy)quinazolin-7-yl)benzo[d]thiazol-2-ol]
[1]; [2]
  IC50: > 500 nM
Wildtype Kras / hSOS1; [2]
  IC50: > 500 nM

## Cc1ccc2cnn(C)c2c1-c1c(Cl)cc2c(N3CCCCC(F)(F)C3)nc(OC[C@@]34CCCN3C[C@H](F)C4)nc2c1F [Compound 179, 6-chloro-4-(3,3-difluoro-azepan-1-yl)-7-(1,6-dimethyl-1H-indazol-7-yl)-8-fluoro-2-(((2R,7aS)-2-fluoro-tetrahydro-1H-pyrrolizin-7a(5H)-yl)-methoxy)quinazoline]
[1]; [2]
  IC50: > 500 nM
Wildtype Kras / hSOS1; [2]
  IC50: > 500 nM

## Cc1ccnc(C(C)C)c1-n1c(=O)nc(N2CC3CCC(C2)N3)c2cc(F)c(-c3cc(O)cc4ccccc34)nc21 [Compound 567, 4-(3,8-diazabicyclo[3.2.1]-octan-3-yl)-6-fluoro-7-(3-hydroxynaphthalen-1-yl)-1-(2-isopropyl-4-methylpyri-din-3-yl)pyrido[2,3-d]pyrim-idin-2(1H)-one]
[1]; compound nos. 401-703
  IC50: > 500 nM
Wildtype Kras / hSOS1; compound nos. 401-703
  IC50: > 500 nM

## Nc1nc2c(-c3c(Cl)cc4c(N5CC6CCC(C5)N6)nc(OCCCN5CCCC5)nc4c3F)ccc(F)c2s1 [Compound 457, 4-(4-(3,8-diazabicyclo-[3.2.1]octan-3-yl)-6-chloro-8-fluoro-2-(3-(pyrrolidin-1-yl)propoxy)quinazolin-7-yl)-7-fluorobenzo[d]thiazol-2-amine]
[1]; compound nos. 401-703
  IC50: > 500 nM
Wildtype Kras / hSOS1; compound nos. 401-703
  IC50: < 500 nM

## CN1CCC[C@H]1COc1nc(N2CCCCC(C(N)=O)C2)c2cc(Cl)c(-c3cccc4sc(N)nc34)c(F)c2n1 (stereo partly drawn) [Compound 455, 1-(7-(2-aminobenzo[d]-thiazol-4-yl)-6-chloro-8-fluoro-2-(((S)-1-methylpyr-rolidin-2-yl)methoxy)quin-zolin-4-yl)azepane-3-carboxamide]
[1]; compound nos. 401-703
  IC50: < 500 nM
Wildtype Kras / hSOS1; compound nos. 401-703
  IC50: < 500 nM

## Nc1nc2c(-c3c(Cl)cc4c(N5CCNCC(F)(F)C5)nc(OC[C@@]56CCCN5C[C@H](F)C6)nc4c3F)ccc(F)c2s1 [Compound 133, 4-(6-chloro-4-(6,6-difluoro-1,4-diazepan-1-yl)-8-fluoro-2-(((2R,7aS)-2-fluorotetrahydro-1H-pyrrolizin-7a(5H)-yl)methoxy)quinazolin-7-yl)-7-fluorobenzo[d]thiazol-2-amine]
[1]; [2]
  IC50: < 500 nM
Wildtype Kras / hSOS1; [2]
  IC50: < 500 nM

## CO[C@@H]1CN(C)C[C@H]1Oc1nc(N2CC3CCC(C2)N3)c2cc(CCC#N)c(-c3ccc(F)c4sc(N)nc34)c(F)c2n1 [Compound 424, 3-(7-(2-amino-7-fluoro-benzo[d]thiazol-4-yl)-4-(3,8-diazabicyclo[3.2.1]octan-3-yl)-8-fluoro-2-(((3R,4R)-4-methoxy-1-methylpyrrolidin-3-yl)oxy)quinazolin-6-yl)-propanenitrile]
[1]; compound nos. 401-703
  IC50: > 500 nM
Wildtype Kras / hSOS1; compound nos. 401-703
  IC50: < 500 nM

## CS(=O)(=O)N1CCCN(c2nc(OC[C@@]34CCCN3C[C@H](F)C4)nc3c(F)c(-c4ccc(F)c5sc(N)nc45)c(Cl)cc23)CC1 [Compound 644, 4-(6-chloro-8-fluoro-2-(((2R,7aS)-2-fluorotetra-hydro-1H-pyrrolizin-7a(5H)-yl)methoxy)-4-(4-(methylsulfonyl)-1,4-diazepan-1-yl)quinazolin-7-yl)-7-fluorobenzo[d]thia-zol-2-amine]
[1]; compound nos. 401-703
  IC50: < 500 nM
Wildtype Kras / hSOS1; compound nos. 401-703
  IC50: > 500 nM

## Nc1nc2c(-c3c(Cl)cc4c(N5C[C@H]6CC[C@@H](C5)N6)nc(OCCCN5CCCC5)nc4c3F)ccc(F)c2s1 [Compound 208, 4-(4-((1R,5S)-3,8-diaza-bicyclo[3.2.1]octan-3-yl)-6-chloro-8-fluoro-2-(3-(pyrrolidin-1-yl)propoxy)-quinazolin-7-yl)-7-fluoro-benzo[d]thiazol-2-amine]
[1]; [3]
  IC50: < 1500 nM
Wildtype Kras / hSOS1; [3]
  IC50: < 1500 nM

## Nc1nc2c(-c3cc4c(=O)n(CCN5CCCC5)nc(N5CCCOCC5)c4cc3Cl)ccc(F)c2s1 [Compound 484, 7-(2-amino-7-fluorobenzo-[d]thiazol-4-yl)-6-chloro-4-(1,4-oxazepan-4-yl)-2-(2-(pyrrolidin-1-yl)ethyl)phthal-azin-1(2H)-one]
[1]; compound nos. 401-703
  IC50: > 500 nM
Wildtype Kras / hSOS1; compound nos. 401-703
  IC50: < 500 nM

## N#CC1COCCN(c2nc(OCC34CCCN3C[C@H](F)C4)nc3c(F)c(-c4ccc(F)c5sc(N)nc45)c(Cl)cc23)C1 (stereo partly drawn) [Compound 513, 4-(7-(2-amino-7-fluoroben-zo[d]thiazol-4-yl)-6-chloro-8-fluoro-2-(((2R)-2-fluoro-tetrahydro-1H-pyrrolizin-7a(5H)-yl)methoxy)quin-azolin-4-yl)-1,4-oxazepane-6-carbonitrile]
[1]; compound nos. 401-703
  IC50: < 500 nM
Wildtype Kras / hSOS1; compound nos. 401-703
  IC50: > 500 nM

## CN(C)C/C=C/C(=O)N1CC2(CCCN(c3nc(OC[C@@]45CCCN4C[C@H](F)C5)nc4c(F)c(-c5ccc(F)c6sc(N)c(C#N)c56)c(Cl)cc34)C2)C1 [Compound 522, 2-amino-4-(6-chloro-4-(2-((E)-4-(dimethylamino)but-2-enoyl)-2,6-diazaspiro[3.5]nonan-6-yl)-8-fluoro-2-(((2R,7aS)-2-fluorotetrahydro-1H-pyrrolizin-7a(5H)-yl)methoxy)quinazolin-7-yl)-7-fluorobenzo[b]thiophene-3-carbonitrile]
[1]; compound nos. 401-703
  IC50: < 500 nM
Wildtype Kras / hSOS1; compound nos. 401-703
  IC50: > 500 nM

## CN1CCC[C@H]1COc1nc2c(c(N3CCNCC(F)(F)C3)n1)CCN(c1cc(O)cc3ccccc13)C2 [Compound 419, (S)-4-(4-(6,6-difluoro-1,4-diazepan-1-yl)-2-((1-methylpyrrolidin-2-yl)methoxy)-5,8-dihydropyrido[3,4-d]pyrimidin-7(6H)-yl)naphthalen-2-ol]
[1]; compound nos. 401-703
  IC50: < 500 nM
Wildtype Kras / hSOS1; compound nos. 401-703
  IC50: < 500 nM

## Oc1cc(-c2cnc3c(N4CC5CCC(C4)N5)nc(OC[C@@]45CCCN4C[C@H](F)C5)nc3c2)c2ccccc2c1 (single isomer, unassigned) [Compound 429]
[1]; compound nos. 401-703
  IC50: > 500 nM
Wildtype Kras / hSOS1; compound nos. 401-703
  IC50: < 500 nM

## CN1CCC[C@H]1COc1nc(N2CCCC(n3ccnc3)CC2)c2cc(Cl)c(-c3cccc4sc(N)nc34)c(F)c2n1 (stereo partly drawn) [Compound 651, 4-(4-(4-(1H-imidazol-1-yl)-azepan-1-yl)-6-chloro-8-fluoro-2-(((S)-1-methyl-pyrrolidin-2-yl)methoxy)-quinazolin-7-yl)benzo[d]-thiazol-2-amine]
[1]; compound nos. 401-703
  IC50: < 500 nM
Wildtype Kras / hSOS1; compound nos. 401-703
  IC50: > 500 nM

## CN(C)C1CN(c2nc(N3CC4CCC(C3)N4)c3cc(CCC#N)c(-c4ccc(F)c5sc(N)nc45)c(F)c3n2)C1 [Compound 516, 3-(7-(2-amino-7-fluoroben-zo[d]thiazol-4-yl)-4-(3,8-diazabicyclo[3.2.1]octan-3-yl)-2-(3-(dimethylamino)-azetidin-1-yl)-8-fluoroquin-azolin-6-yl)propanenitrile]
[1]; compound nos. 401-703
  IC50: > 500 nM
Wildtype Kras / hSOS1; compound nos. 401-703
  IC50: > 500 nM

## Nc1nc2c(-c3c(Cl)cc4c(N5CCOCC(O)C5)nc(OCC56CCCN5CCC6)nc4c3F)ccc(F)c2s1 (stereo not shown) [Compound 159, 4-(7-(2-amino-7-fluoro-benzo[d]thiazol-4-yl)-6-chloro-8-fluoro-2-((tetra-hydro-1H-pyrrolizin-7a(5H)-yl)methoxy)quinazolin-4-yl)-1,4-oxazepan-6-ol]
[1]; [2]
  IC50: < 500 nM
Wildtype Kras / hSOS1; [2]
  IC50: < 500 nM
